Experimental data reported in PubChem BioAssay (NCI).
Where “and” joins values, the source holds several entries; their conditions need not be identical. Equal values may be shown once.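 The compound was tested at five concentrations on cells cultured in 96-well plates, with a 48-hour exposure period. GI50: concentration for 50% inhibition of growth. TGI marks complete inhibition of growth.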

Legend:
Experiment in all cases: NCI tumour cell line growth inhibition, 48 h
LXFL 529 NSCLC = test system: LXFL 529 NSCLC
RXF-631 renal = test system: RXF-631 renal
HOP-18 NSCLC = test system: HOP-18 NSCLC
SN12K1 renal = test system: SN12K1 renal
MDA-N = test system: MDA-N
HS 578T breast = test system: HS 578T breast
P388/ADR leukemia = test system: P388/ADR leukemia
XF 498 CNS = test system: XF 498 CNS
P388 leukemia = test system: P388 leukemia
MDA-MB-435 = test system: MDA-MB-435
T-47D breast = test system: T-47D breast
MCF7 breast = test system: MCF7 breast

SMILES | TGI (LXFL 529 NSCLC) | TGI (RXF-631 renal) | TGI (HOP-18 NSCLC) | TGI (XF 498 CNS) | also measured
N#CN1CCC=C(c2cc3ccccc3[nH]2)C1 | > 448 µM | > 448 µM | > 448 µM | – | –
COc1cc(/C=C2/C(=O)NC(Cc3cc(OC)c(OC)c(C)c3OC)C(=O)N2Cc2ccccc2)c(OC)c(C)c1OC (configuration not stated) | > 100 µM | > 100 µM | 80.4 µM | – | –
CNc1nc(N(C)C)nc(N(C)C)n1 | > 100 µM | – | > 100 µM and 3780 µM | > 100 µM and 1720 µM | TGI (SN12K1 renal): 2620 µM; TGI (MDA-N): 2850 µM; TGI (HS 578T breast): 4450 µM; TGI (P388/ADR leukemia): 1800 µM; GI50 (XF 498 CNS): > 100 µM and 538 µM; TGI (P388 leukemia): 1530 µM; TGI (MDA-MB-435): 4420 µM; TGI (T-47D breast): 3720 µM; TGI (MCF7 breast): 1790 µM; GI50 (HOP-18 NSCLC): > 100 µM and 1130 µM
CC12CC3CC(C1)CC(N=[N+]=[N-])(C3)C2 | > 100 µM | > 100 µM | > 100 µM | > 100 µM | –
O=C(/C=C1/NC(=O)CS1)Nc1ccccc1 | > 100 µM | > 100 µM | > 100 µM | > 100 µM | –
O=C1C[C@@H]2CCCC[C@@H]2C12SCCS2 | > 100 µM | > 100 µM | – | > 100 µM | –
COc1cc(C(=O)CC2(O)C(=O)Nc3c(Cl)cc(Cl)cc32)ccc1O (configuration not stated) | > 100 µM | > 100 µM | > 100 µM | > 100 µM | –
CS/C(c1ccccc1)=[N+](/C)[O-] | > 100 µM | > 100 µM | > 100 µM | > 100 µM | –
Cc1ccc(N2C(=O)/C(=C/c3ccc(N(CCC#N)CCC#N)cc3C)N=C2c2cc([N+](=O)[O-])ccc2Cl)cc1 | > 100 µM | > 100 µM | > 100 µM | – | –
[C-]#[N+]C(C)(C)C[C@H]1CC(C)C2CCC(C)C3([N+]#[C-])CCC(=C)C1[C@H]23 (some centres not stated) | 23.4 µM | 6.58 µM | 14.4 µM | 10.1 µM | –
CC1=Nn2c(nnc2-c2ccc(N)cc2)NC(C)(C)C1 | > 100 µM | > 100 µM | > 100 µM | > 100 µM | –
COc1ccc2c(c1)CC1c3c(cc4c(c3-2)OCO4)CCN1C (configuration not stated) | > 100 µM | 73.6 µM | 82.7 µM | 74 µM | –
CC(C)(c1ccc(OC#N)cc1)c1ccc(OC#N)cc1 | > 100 µM | > 100 µM | > 100 µM | – | –
N#CC(C#N)=C1SCC(=O)CS1 | > 100 µM | > 100 µM | – | > 100 µM | –
COc1cc([C@@H]2OC(=O)C3C2C(=O)O[C@H]3c2cc(OC)c(OC)c(OC)c2)cc(OC)c1OC (some centres not stated) | – | > 100 µM | > 100 µM | > 100 µM | –
Cc1cc(=O)oc2cc(OCc3nc4ccccc4c(=O)[nH]3)ccc12 | > 100 µM | – | > 100 µM | > 100 µM | –
Cn1c(=O)c(C(=O)NC(=O)OCc2ccccc2)cn(CCSCCOC(=O)NCCCCCCNC(=O)OCCSCCn2cc(C(=O)NC(=O)OCc3ccccc3)c(=O)n(C)c2=O)c1=O | > 100 µM | > 100 µM | – | 57.6 µM | –
COc1cc2cccc(NC(=O)c3cc(OC)c(OC)c(OC)c3Br)c2cc1OC | 10.9 µM | – | 74.4 µM | 7.37 µM | –
CC1(C)C2C/C(=C\c3ccccc3)C(=O)C1C2 (configuration not stated) | > 100 µM | > 100 µM | – | – | –
C=C(C)[C@H](O)C(O)CC(C)[C@@H]1CCC23CC12CCC1[C@@]2(C)CCC(OC(C)=O)C(C)(C)C2CC(OC2OC(COC(C)=O)C(O)C(O)C2O)[C@]13C (some centres not stated) | 10.9 µM | 12 µM | 15.2 µM | – | –
Cc1ccc(/C=C2\CCCC\C2=N\O)cc1 | > 100 µM | – | > 100 µM | > 100 µM | –
Cc1cccc2c1C/C(=C1\CCc3c(C)cccc31)C2=O | > 100 µM | > 100 µM | > 100 µM | – | –
